Data set [1] in a line: Drug induced phase transition temperature with DPPA liposome. The data set is classed as functional.
Data set [2] can be described thus: physchem.
Description: Dissociation constant (pKa)
The species named for data set [3] is Cavia porcellus.
Description: Elevation of the threshold alternating current to induce arrhythmia in isolated guinea pig heart.
Data set [4] can be described thus: physchem. The following applies: octanol/water.
Description: Partition coefficient (logP) (HPLC)
For data set [5], the species on record is Bos taurus. Kind of data set: Concentration at which Ca+ binding to phosphatidylserine monolayers is reduced to 50% of control. In kind it is functional.
The species entered for data set [6] is Bos taurus. The data set is described as follows: Concentration at which Ca+ binding to phosphatidylserine monolayers from bovine brain is reduced to 50% of control. The data set is classed as functional.
Data set [7] is filed under the species Cavia porcellus. The data set is described as follows: Concentration required to elevate the threshold of alternating current to induce arrhythmia in isolated guinea pig heart by 50%; VL = Very low activity. In kind it is functional.
The species named for data set [8] is Cavia porcellus. The data set is described as follows: Concentration required to elevate the threshold of alternating current to induce arrhythmia in isolated guinea pig heart by 50%; Vl = Very low activity. The data set is classed as functional.
The species entered for data set [9] is Cavia porcellus. Kind of data set: Concentration required to elevate the threshold of alternating current to induce arrhythmia in isolated guinea pig heart by 50%; Vl = very low activity. The data set is classed as functional.

Each structure is given as a SMILES string.

`CC(C)c1ccc(CCCN(C)C)cc1.Cl` came in with a Tt in data set [1] of 299 k. For the same compound, the pKa in the data set “physchem [2]” worked out at 10.5. In addition, the “Log AC50” value in the data set filed under Cavia porcellus [3] is recorded as 4.22 uM. The same compound yielded a log partition coefficient (logP) in “physchem [4]” of 2.75.
As for `CN(C)CCCc1ccc2ccccc2c1.Cl`, the Tt in data set [1] amounted to 297 k. This compound displayed a pKa in the data set “physchem [2]” of 10.3. The “Log AC50” value in the data set listed under Cavia porcellus [3] was determined as 4.52 uM. Moreover, the “Log IC50” value in the data set filed under Bos taurus [5] was found to be 4.35 uM. This compound gave a lipophilicity (logP) in the data set “physchem [4]” of 2.62.
`CN(C)CCCc1ccc(Cl)cc1.Cl` came in with a Tt in data set [1] of 302 k. The compound further showed a pKa in the data set “physchem [2]” of 10.6. The “Log AC50” value in the data set listed under Cavia porcellus [3] came out at 4.31 uM. Further, the “Log IC50” value in the data set filed under Bos taurus [6] was found to be 3.85 uM. In addition, in “physchem [4]”, the logP stood at 2.21.
In the data set “physchem [2]”, `COc1ccc(CCCN(C)C)cc1Cl.Cl` gave a pKa of 10.8. Further, the “Log AC50” value in the data set listed under Cavia porcellus [3] is 4.44 uM. The logP in the data set “physchem [4]” stood at 1.92.
With `CN(C)CCCc1ccccc1.Cl`, the Tt in [1] was 3.8 k. Further, the pKa in the data set “physchem [2]” was found to be 11. Further, the “Log AC50” value in the data set filed under Cavia porcellus [3] is 3.55 uM. Moreover, the “Log IC50” value in the data set listed under Bos taurus [5] is listed as 3 uM. Also, in the data set “physchem [4]”, the logP came to 1.5.
For `CN(C)CCC(c1ccccc1)c1ccccc1.Cl` the same measures were 308 k, 10, 4.37 uM, 4.85 uM and 2.76.
For `CN(C)CCCc1ccc(-c2ccccc2)cc1.Cl` the same measures were 285 k, 9.88, 4.8 uM, 5.4 uM and 2.99.
As to `CN(C)CCCc1ccc(-c2ccc(Cl)cc2)cc1.Cl`, the pKa in the data set “physchem [2]” was found to be 9.96. Besides, the “Log AC50” value in the data set filed under Cavia porcellus [3] is 5.7 uM. Also, in the data set “physchem [4]”, the logP was 3.45.
The compound `CN(C)CCC(c1ccccc1)c1ccc(-c2ccccc2)cc1` (centres undefined) registered a Tt in data set [1] of 294 k. Moreover, in “physchem [2]”, the pKa came to 9.85. Moreover, the logP in “physchem [4]” turned out to be 3.36.
`CN(C)CCCc1ccc(C(C)(C)C)cc1.Cl` returned a Tt in data set [1] of 297 k. The same compound registered a pKa in “physchem [2]” of 10. In the data set listed under Cavia porcellus [3], the “Log AC50” value was 4.52 uM. Further, the “Log IC50” value in the data set filed under Bos taurus [5] is reported as 5.4 uM. In the data set “physchem [4]”, this compound displayed a logP of 2.96.
For `COc1ccc(-c2ccc(CCCN(C)C)cc2)cc1.Cl` the same measures were 296 k, 9.85, 4.96 uM, 5.4 uM and 2.95.
Regarding `CCc1ccc(CCCN(C)C)cc1.Cl`, the Tt in [1] stood at 300 k. Besides, the pKa in “physchem [2]” turned out to be 10.6. In addition, the “Log AC50” value in the data set filed under Cavia porcellus [3] is recorded as 3.94 uM. Also, the logP in the data set “physchem [4]” worked out at 2.45.
`CN(C)CCCc1ccc(Br)cc1`: in “physchem [2]”, the pKa came out at 10.6. The same compound returned a logP in “physchem [4]” of 2.37.
In the case of `CN(C)CCCc1cccnc1.Cl`, the “Log AC50” value in the data set listed under Cavia porcellus [7] is “Very low activity”. This compound also gave a pKa in the data set “physchem [2]” of 10.7. In addition, the “Log IC50” value in the data set listed under Bos taurus [5] was 3.6 uM. This compound also came in with a logP in “physchem [4]” of 0.57.
On to `CN(C)CC(Cc1ccccc1)c1ccccc1.Cl` (centres undefined), for which the Tt in data set [1] stood at 309 k. The pKa in “physchem [2]” was 9.93. The “Log AC50” value in the data set listed under Cavia porcellus [3] is 4.13 uM. Further, the logP in “physchem [4]” amounted to 2.59.
For the compound `CCCc1ccc(CCCN(C)C)cc1.Cl`, the Tt in data set [1] was found to be 295 k. This compound also gave a pKa in the data set “physchem [2]” of 10.5. Besides, the “Log AC50” value in the data set listed under Cavia porcellus [3] amounted to 4.85 uM. The compound also came in with a logP in “physchem [4]” of 2.89.
For the compound `Cc1ccc(CCCN(C)C)cc1.Cl`, the Tt in data set [1] stood at 303 k. The pKa in the data set “physchem [2]” stood at 10.8. Moreover, the “Log AC50” value in the data set listed under Cavia porcellus [3] came to 4.02 uM. Besides, the logP in “physchem [4]” came out at 2.
For `C[N+](C)(C)CCCc1ccccc1.[Cl-]`, the Tt in data set [1] turned out to be 307 k. For the same compound, the “Log IC50” value in the data set listed under Bos taurus [5] worked out at 3.4 uM. The log partition coefficient (logP) in the data set “physchem [4]” is 0.44. Further, in the data set listed under Cavia porcellus [8], the “Log AC50” value was “Very low activity”.
`CN(C)CCCc1ccc([N+](=O)[O-])cc1.Cl` had a Tt in data set [1] of 307 k. This compound displayed a pKa in the data set “physchem [2]” of 10.7. Besides, the “Log IC50” value in the data set filed under Bos taurus [5] worked out at 4.15 uM. In addition, the logP in the data set “physchem [4]” is 1.5. For the same compound, the “Log AC50” value in the data set filed under Cavia porcellus [9] is recorded as “Very low activity”.
In turn, `CCOc1ccc(-c2ccc(CCCN(C)C)cc2)cc1.Cl` gave a pKa in the data set “physchem [2]” of 9.82. Moreover, the “Log AC50” value in the data set listed under Cavia porcellus [3] is 4.8 uM. Moreover, in the data set “physchem [4]”, the logP is 3.3.
In data set [1], `CN(C)CCCc1ccc(O)c(Cl)c1.Cl` gave a Tt of 294 k. For the same compound, the “Log AC50” value in the data set listed under Cavia porcellus [3] is given as 3.82 uM. The compound also had a logP in “physchem [4]” of 0.97.
In [1], `CN(C)CCCc1ccc(-c2ccc(O)cc2)cc1.Cl` gave a Tt of 349 k. Further, in the data set “physchem [2]”, the pKa came out at 9.32. In the data set listed under Cavia porcellus [3], the “Log AC50” value stood at 4.43 uM. Besides, the “Log IC50” value in the data set filed under Bos taurus [5] worked out at 4.4 uM. Moreover, in “physchem [4]”, the lipophilicity (logP) is 2.1.
In “physchem [4]”, `COc1ccc(-c2ccc(CCC[N+](C)(C)C)cc2)cc1` had a logP of 2.17. For the same compound, the “Log AC50” value in the data set listed under Cavia porcellus [8] was “Very low activity”.
`CN(C)CCCc1ccc(N)cc1.Cl` showed a pKa in the data set “physchem [2]” of 10.9. Also, the “Log AC50” value in the data set listed under Cavia porcellus [3] turned out to be 3 uM. Further, the logP in “physchem [4]” was 0.12.
`CN(C)CCCc1ccc(O)cc1.Cl` registered a Tt in data set [1] of 314 k. Moreover, the “Log AC50” value in the data set listed under Cavia porcellus [3] is 3.29 uM. The “Log IC50” value in the data set listed under Bos taurus [5] is listed as 2.72 uM. Moreover, the logP in the data set “physchem [4]” was 0.35.

Usually pKa stands for the negative logarithm of the acid dissociation constant. Lower therefore signals a group that gives up its proton readily. Broadly, the logP is a log measure of how a compound divides between an organic and an aqueous phase. Read a high logP as higher lipophilicity.

Values taken from ChEMBL document CHEMBL1132180, “Synthesis, pharmacological and biophysical characterization, and membrane-interaction QSAR analysis of cationic amphiphilic model compounds” (J Med Chem, 1999).
